Reference: patent publication US7645449B2, “Sensitizing cells for apoptosis by selectively blocking cytokines” (priority 2003, dated 2010)

Tests used:
Format in all cases: cell-based, human
[1] = system: RT112 bladder carcinoma cells; test: MTS viability of RT112 cells: chemotherapy- and anti-CD95-induced apoptosis; conditions: RT112 without IL-4; 50 ng/ml camptothecin or 7 μM etoposide
Source text: Anticancer treatment using cytotoxic drugs mediates cell death by activating the intracellular apoptotic program. To determine whether IL-4 was able to inhibit apoptosis induced by chemotherapeutic drugs, bladder tumor cells (RT112) were pretreated for two days with different concentrations of IL-4 and subsequently exposed to camptothecin or etoposide.
Human LNCAP prostate cancer cell line and human MDA-MB-231 breast cancer cell line were obtained from the American Type Culture Collection (ATCC, Manassas, Va.). Human RT112 bladder carcinoma cell line was kindly provided by Dr. M. Cippitelli (Regina Elena Cancer Institute, Rome, Italy). Cells were grown in RPMI 1640 (Life Technologies Inc., Grand Island, N.Y.) containing 10% heat inactivated fetal bovine serum supplemented with L-Glutamine 2 mM and 100 units/ml Penicillin-Streptomycin. Cells were kept in 5% CO2 atmosphere and routinely passaged when 80-85% confluent. […] Camptothecin, cisplatin, daunorubicine, etoposide and vincristine were purchased from Sigma-Aldrich Inc. (Sain Louis, Mo.) and resuspended in DMSO (cisplatin, camptothecin and etoposide) or in H2O (daunorubicine and vincristine). Anti-CD95 agonistic antibody (clone CH11) was purchased from Upstate Biotechnology (Lake Placid, N.Y.). Monoclonal antibody anti-Bcl-XL (H5, mouse) was from Santa Cruz (Santa Cruz, Calif.), antibody anti-cFlip/FLAME-1 (NF6, mouse) was kindly provided by Dr. P.H. Krammer (German Cancer Reseach Center, Heidelberg, Germany). Antibody anti β-actin (goat) was purchased from Oncogene (Boston, Mass.):
Cell viability was determined using the CellTiter 96® AQueous One Solution Cell Proliferation Assay (Promega, Madison, Wis.), according to the manufacturer's instructions. The assay is based on reduction of 3-(4,5-dimethylthiazol-2-yl)-5-(3-carboxymethoxyphenyl)-2-(4-sulfophenyl)-2H-tetrazolium, inner salt (MTS) to a colored formazan product that is measured spectrophotometrically. Cells were seeded in 96-well tissue culture plates and incubated at 37° C. in a 5% CO2 incubator overnight. […] After two days cells were treated for 10 hours with chemotherapeutic drugs or anti-CD95, then 20 μl of MTS were added to each well. After 3 hours of incubation at 37° C. with the MTS reagent, the plates were read on a Multilabel Counter (Victor2, Wallac, Perkin-Ehmer Inc., Norwalk, Conn.) and dye absorbance was measured at 490 nm.
The percentage of apoptotic cells was derived from the percentage of viable cells that was directly calculated from the values of the MTS assay. The percentage of protection from apoptosis was determined as: % protection=100%−X
X was calculated with the formule: (C1−C2):100=(S1−S2):X where:
C1 is the viability of untreated control cells, C2 is the viability of control cells treated with the apoptotic stimulus, S1 and S2 are the viability of cells preincubated with cytoldnes or transduced with anti-apoptotic genes, untreated (S1) or treated (S2) with the apoptotic stimuli.
(A) Percentage of viable RT112 bladder carcinoma cells pre-treated for two days with increasing doses of IL-4 (5, 10, 20, 50 and 100 ng/ml) which were maintained also during incubation with chemotherapeutic drugs and exposed to 50 ng/ml camptothecin of 7 μM etoposide. […] Cell viability was determined after 24 hours using the MTS assay as described in Materials and Methods and the percentage of protection from cell death was calculated as described in Materials and Methods. The results shown are the mean ±s.d. of four independent experiments.
When the cytokine is removed by washing the percentage of protection is downmodulated.
(E) IL-4 prevents anti CD95-induced apoptosis. […] Successively, cells were incubated with 30 ng/ml anti-CD95 agonistic antibody in standard medium, Control cells (−) were stimulated with anti-CD95 in the absence of cytokine pre-treatment. The results shown are the mean ±s.d. of four independent experiments.

[2] = system: primary neoplastic cells derived from all the histological variants of thyroid epithelial carcinomas (PTC, FTC, UTC); test: Chemotherapy-induced cell death in freshly purified thyroid carcinoma cells compared with normal thyrocytes; conditions: cisplatin 300 ng/ml, doxorubicin 5 μM, taxol 5 μM, 6, 12 and 24 h
Procedure: Such resistance persisted for some days and was generally lost after eight to ten days of in vitro culture (results not shown).
(§1) Thyroid cell purification and culture. Thyroid tissues from normal, PTC, FTC and UTC were digested for 2 hours with collagenase (1.5 mg/ml) (Gibco BRL, Grand Island, N.Y.) and hyaluronidase (20 μg/ml) (Sigma Chemical Co., St. Louis, Mo.) in DMEM. Thyrocytes were purified from the digested tissues by hematopoietic cell depletion with anti-CD45-coupled beads (Dynal, Wirral Merseyside, U.K.) and 12 hours of flask adherence, which allowed removal of other cells. After additional 12 hours of culture, thyroid cells were allowed to grow in monolayer for the immunocytochemistry or detached with trypsin+EDTA following exposure to cytokines or chemotherapeutic agents for functional and protein analyses. Thyrocytes were cultured in standard DMEM with 10% heat-inactivated FBS (Hyclone Laboratories, Logan, UK) in the presence or absence of human recombinant IL-4 (20 ng/ml), IL-10 (40 ng/ml) or IFN-γ (1000 IU/ml) (uroclone, Paignton, UK) and cisplatin (300 ng/ml), doxorubicin (5 μM) and taxol (5 μM) (Sigma) or TRAIL (Alexis, San Diego, USA). For the IL-4 and IL-10 neutralization, thyroid cancer cells were pretreated, for 48 hours, with anti-human IL-4 and IL-10 neutralizing antibodies (1 μg/ml) (R&D systems, MN, USA).
Cell death quantitation. Apoptotic events of neoplastic thyrocytes were evaluated by DNA staining and flow cytometry analysis. Thyroid cell pellets were resuspended in hypotonic fluoroclrome solution containing propidium iodide (50 μg/ml), in 0.1% sodium citrate and 0.1% Triton X-100. The percentage of hypodiploid nuclei was evaluated as previously described. Alternatively, freshly purified thyrocytes were plated in 96-bottomed plates in triplicate at 15,000 cells/well and cultured. The number of viable cells was detected by CellTiter Aqueous Assay Kit (Promega Corporation, WI, USA) adding 20 μl of solution reagent directly to culture wells, incubating for 1 hours at 37° C. and recording absorbance at 490 nm.
FIG. 1. […]

[3] = system: Bcl-xL and Bcl-2 in normal thyrocytes; test: Immunoblot of Bcl-xL and Bcl-2 in normal thyrocytes cultured with cytokines; conditions: after 48 hours of culture; IL-4 20 ng/ml, IL-10 40 ng/ml, IFN-γ 1000 IU/ml
Procedure: as §1
Protein isolation and Western Blotting. Cell pellets were resuspended in ice-cold NP-40 lysis buffer (50 mM Tris-HCl, pH 7.5, 150 mM NaCl, 1 mM EGTA, 1% NP-40) containing 1 mM PMSF, leupeptin (1 μg/ml), pepstatin (1 μg/ml) and aprotirni (1 μg/ml). Each lysate (30 μg) was fractioned on 12% SDS-polyacrylamide gels and blotted to nitrocellulose (Hybond, Amersham, Little Chalfont Buckinghamshire England, UK). Membrane was blocked for 1 h with nonfat dry milk in TBS containing 0.05% Tween 20 and successively incubated for 2 h with Abs specific to actin (Ab-1, mouse IgM, Calbiochem, Darmstadt, Germany), Bcl-2 (124, mouse IgG1, Upstate Biotechnology Inc.), Bcl-xL (H-5, mouse IgGl, Santa Cniz Biotechnology), IL-4 (3007.11, mouse IgG1, R&D Systems, Inc., Minneapolis, USA), IL-10 (23738.111, mouse IgG2b, R&D Systems), IFN-γ (25718.111, mouse IgG2a, R&D Systems). […]

[4] = system: normal thyrocytes; test: Cytokine protection of normal thyrocytes from chemotherapy-induced apoptosis; conditions: 48 h pre-treatment, rhIL-4 20 ng/ml or rhIL-10 40 ng/ml, then drugs for 12 h
Procedure: Thyroid cell purification and culture. Thyroid tissues from normal, PTC, FTC and UTC were digested for 2 hours with collagenase (1.5 mg/ml) (Gibco BRL, Grand Island, N.Y.) and hyaluronidase (20 μg/ml) (Sigma Chemical Co., St. Louis, Mo.) in DMEM. Thyrocytes were purified from the digested tissues by hematopoietic cell depletion with anti-CD45-coupled beads (Dynal, Wirral Merseyside, U.K.) and 12 hours of flask adherence, which allowed removal of other cells. After additional 12 hours of culture, thyroid cells were allowed to grow in monolayer for the immunocytochemistry or detached with trypsin+EDTA following exposure to cytokines or chemotherapeutic agents for functional and protein analyses. […]
Cell death quantitation. Apoptotic events of neoplastic thyrocytes were evaluated by DNA staining and flow cytometry analysis. […] The percentage of hypodiploid nuclei was evaluated as previously described. […] The number of viable cells was detected by CellTiter Aqueous Assay Kit (Promega Corporation, WI, USA) adding 20 μl of solution reagent directly to culture wells, incubating for 1 hours at 37° C. and recording absorbance at 490 nm. […]

## CC[C@@]1(O)C(=O)OCc2c1cc1n(c2=O)Cc2cc3ccccc3nc2-1 [camptothecin, reference compound]
[1]
  tumor cells undergoing apoptosis in response to chemotherapeutic agents: ~60%

## N.N.[Cl][Pt][Cl] [cisplatin]
[2]
  sensitivity of primary neoplastic thyroid cells to chemotherapeutic drugs (viability/apoptosis): considerable resistance

## COc1cccc2c1C(=O)c1c(O)c3c(c(O)c1C2=O)C[C@@](O)(C(=O)CO)C[C@@H]3O[C@H]1C[C@H](N)[C@H](O)[C@H](C)O1 [doxorubicin]
[2]
  sensitivity of primary neoplastic thyroid cells to chemotherapeutic drugs (viability/apoptosis): considerable resistance

## COc1cc([C@@H]2c3cc4c(cc3[C@@H](O[C@@H]3O[C@@H]5CO[C@@H](C)O[C@H]5[C@H](O)[C@H]3O)[C@H]3COC(=O)[C@H]23)OCO4)cc(OC)c1O [etoposide, reference compound]
[1]
  tumor cells undergoing apoptosis in response to chemotherapeutic agents: ~60%

## CC(=O)O[C@H]1C(=O)[C@@]2(C)[C@H]([C@H](OC(=O)c3ccccc3)[C@]3(O)C[C@H](OC(=O)[C@H](O)[C@@H](NC(=O)c4ccccc4)c4ccccc4)C(C)=C1C3(C)C)[C@]1(OC(C)=O)CO[C@@H]1C[C@@H]2O [taxol]
[2]
  sensitivity of primary neoplastic thyroid cells to chemotherapeutic drugs (viability/apoptosis): considerable resistance

B1: IFN-γ: human recombinant IFN-γ (protein, UniProt P01579 24-161, looked up)
Interferon gamma: QDPYVKEAENLKKYFNAGHSDVADNGTLFLGILKNWKEESDRKIMQSQIVSFYFKLFKNFKDDQSIQKSVETIKEDMNVKFFNSNKKKRDDFEKLTNYSVTDLNVQRKAIHELIQVMAELSPAAKTGKRKRSQMLFRG
[3]
  Bcl-xL and Bcl-2 expression in normal thyrocytes: not effective

B2: IL-10: human recombinant IL-10 (protein, UniProt P22301 19-178, looked up)
Interleukin-10: SPGQGTQSENSCTHFPGNLPNMLRDLRDAFSRVKTFFQMKDQLDNLLLKESLLEDFKGYLGCQALSEMIQFYLEEVMPQAENQDPDIKAHVNSLGENLKTLRLRLRRCHRFLPCENKSKAVEQVKNAFNKLQEKGIYKAMSEFDIFINYIEAYMTMKIRN
[4]
  prevention of death of normal thyrocytes exposed to cisplatinum, doxorubicin and taxol: drastically prevented death
[3]
  Bcl-xL and Bcl-2 expression in normal thyrocytes: upregulated
